Source: ChEMBL document CHEMBL1201862, “PubChem BioAssay data set” (2004)
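Assay format: 96-well plates, 48-hour exposure. GI50: concentration for 50% inhibition of growth.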 The source made the active and inactive calls. No stated cut-off is given here; in the data, active = GI50 up to about 1.1 µM and inactive = higher.

Assays:
Test in all cases: NCI-60 cell line screen, 48 h
[1] = test system: SNB-75
[2] = test system: SF-539
[3] = test system: UO-31
[4] = test system: Hs-578T
[5] = test system: CAKI-1
[6] = test system: T47D
[7] = test system: IGROV-1
[8] = test system: SN12C
[9] = test system: OVCAR-3
[10] = test system: HCC 2998
[11] = test system: HCT-116
[12] = test system: KM12
[13] = test system: HOP-92
[14] = test system: LOX IMVI
[15] = test system: SF-295
[16] = test system: MDA-MB-435
[17] = test system: MDA-MB-231
[18] = test system: SF-268
[19] = test system: 786-0
[20] = test system: NCI/ADR-RES

Measured: GI50

Cn1ccnc1Sc1ccc(/C=N/c2ccc3nc(SCC(=O)NC4CCCCC4)sc3c2)cc1[N+](=O)[O-]
inactive: [1] 2.7 µM | [2] 5.68 µM | [3] > 100 µM | [4] 18.6 µM | [5] > 100 µM | [6] > 100 µM | [7] 37.1 µM | [8] > 100 µM | [9] 91.6 µM | [10] > 100 µM | [11] 25.9 µM | [12] > 100 µM | [13] 12.1 µM | [14] 95.1 µM | [15] 13.2 µM | [16] > 100 µM | [17] 31.4 µM | [18] 22.6 µM | [19] 11.6 µM | [20] > 100 µM

CC(=O)OCCCCn1nncc1Cn1ccc(=O)n(Cc2cnnn2CCCCOC(C)=O)c1=O
inactive: [1] > 100 µM | [2] > 100 µM | [3] > 100 µM | [4] > 100 µM | [5] > 100 µM | [6] > 100 µM | [7] > 100 µM | [8] > 100 µM | [9] > 100 µM | [10] > 100 µM | [11] > 100 µM | [12] > 100 µM | [13] > 100 µM | [14] > 100 µM | [15] > 100 µM | [16] > 100 µM | [17] > 100 µM | [18] > 100 µM | [19] > 100 µM | [20] > 100 µM

CN(C)CCCOCCn1c2c(c3ccccc31)CCCC2
inactive: [1] 13.1 µM | [2] 18.7 µM | [3] 17.1 µM | [4] 19.7 µM | [5] 15.2 µM | [6] 23.2 µM | [7] 15.8 µM | [8] 16.9 µM | [9] 18.2 µM | [10] 14.4 µM | [11] 15.3 µM | [12] 21.2 µM | [13] 13.2 µM | [14] 16.1 µM | [15] 20 µM | [16] 17.7 µM | [17] 13 µM | [18] 26.9 µM | [19] 15.2 µM | [20] 16.3 µM
